Experiments:
[1] = system: TC-71 (Ewing's sarcoma) cells; assay: Cell proliferation assay, TC-71 (Alamar Blue); assay type: cell-based; conditions: TC-71 cells, 72 h, read-out: TC71 EC50 range
Description: Cell Proliferation Assays
Published scientific data has described that interference with the Insulin-like Growth Factor-1 Receptor (IGF-1R) signaling pathway reduces the proliferation of TC-71 cells. Therefore TC-71 cells served as a positive control cell line for monitoring the activity of compounds against IGF-1R-mediated cell proliferation.
2000 TC-71 cells or 1000 HCT 116 cells were seeded per well in 180 μL IMDM+10% foetal calf serum (FCS)+penicillin/streptomycin into 96-well microtitre plates. The plates were placed in a cell culture incubator (37° C. in a humidified atmosphere of 95% […]/5 CO2) overnight. The following day, serial dilutions of compounds, prepared in duplicates, were transferred onto the cell layers (controls without compound). The cells were cultivated for a further 72 h in the cell culture incubator. 20 μL of Alamar Blue™ (Serotec Ltd, Düsseldorf, Germany) was added to each well and the plates incubated for 7 h in the cell culture incubator.

[2] = target: cytoplasmic kinase domain of human IGF-1R (IGF-1R-GST) (Homo sapiens (Human), UniProt P08069); assay: Insulin-like growth factor-1 receptor (IGF-1R) kinase assay (DELFIA); assay type: biochemical; conditions: inhibition of IGF-1R-kinase activity, read-out: IGF1R IC50
Description: Insulin-Like Growth Factor-1 Receptor (IGF-1R)-Kinase Assay
The kinase activity is measured by DELFIA® assay (dissociation-enhanced lanthanide fluorescence immunoassay, Perkin Elmer). […] Enzyme activity is measured in the presence of substances and a control substance. Poly-glutamate-tyrosine peptide (pEY, Sigma Aldrich) and biotinylated pEY (bio-pEY) are used as reaction substrates.
After 40 min at RT the reactions are stopped with 50 μL of stop solution (250 mM EDTA, 20 mM HEPES pH 7.4). 90 μL from each reaction are transferred onto streptavidin-coated 96-well plates. After 120 min incubation at RT the plates are washed three times with 200 μL phosphate-buffered saline (PBS) per well. The plates are incubated for 60 min with 100 μL of europium-coupled antibody against phospho-tyrosine (diluted 1/2000 in Perkin Elmer DELFIA assay buffer) per well. The plates are washed three times with 200 μL per well of DELFIA washing buffer. 100 μL DELFIA Enhancement Solution (Perkin Elmer) is added to each well, and the plates are incubated for 10 min. The fluorescence signal is measured with a Wallac Victor TRF Reader. IC50 values for the inhibition of the IGF-1R-kinase activity are calculated using the programmes Fifty (Version 2) and GraphPad (Version 3.0).

human IGF-1R = human IGF-1R (Homo sapiens (Human), UniProt P08069); assay: Cellular IGF-1R-phosphorylation assay (Fibro-hIGF-1R cells); assay type: cell-based; conditions: IGF-1 stimulated (20 ng/mL, 30 min), 120 min compound incubation, read-out: pIGF-1R EC50 range
Description: Cellular IGF-1R-Phosphorylation Assay
The activity of substances against the phosphorylation of IGF-1R in activated cells is measured as follows: mouse fibroblast cells (transfected with human IGF-1R, Fibro-hIGF-1R) are cultivated in standard medium (DMEM, 10% foetal calf serum (FCS, Gibco), 1×MEM Non-Essential Amino Acids (NEAA, Gibco), 7.5% sodium hydrogen carbonate (Gibco) and 0.3 mg/mL Puromycin (Sigma)) in a humid incubator at 37° C. with 5 CO2/95% air.
10000 Fibro-hIGF-1R cells per well in 200 μL of standard medium are seeded into 96-well plates and cultivated overnight. […] 10 μL of substance solution (diluted in serum-reduced medium) is added thereto, and the cells are incubated for a further 120 min in the incubator. The phosphorylation of IGF-1R is activated for 30 min by the addition of IGF-1 (20 ng/mL in serum-reduced medium). All further incubations are carried out at RT. The supernatant is suction filtered from the wells, and the cells are fixed in 100 μL per well of 4% paraformaldehyde (diluted in PBS). The supernatant in the well is suction filtered and the cells are permeabilised for 5 min in 300 μL per well of 0.1% TritonX-100 (diluted in PBS). […] The cells are washed for 5 min with 300 μL per well of PBS with 0.1% TritonX-100 and then incubated for 60 min with 100 μL per well of blocking buffer (PBS with 0.1% TritonX-100 and 5 Bovine Serum Albumin (BSA)). […] The next day the plates are washed for 5 min with 300 μL PBS/0.1% TritonX-100 at RT and then incubated for 60 min with 50 μL per well of the second antibody buffer (1/500 diluted Goat Anti-Rabbit Immunoglobulin-Horseradish Peroxidase (HRP) (Dako) in blocking buffer) at RT. The plates are washed first for 5 min with 300 μL PBS/0.1% TritonX-100 and then for a further 5 min with 300 μL PBS at RT. The plates are developed for 10 min with 100 μL per well of a peroxidase solution (1:1 mixture of TMB Peroxidase Substrate and Peroxidase Solution B from Kirkegaard & Perry Laboratories, Inc.). The reactions are stopped with 100 μL per well of stop solution (1 M phosphoric acid). The absorbance in each well is measured at 450 nm with a SpectraMax Absorbance Reader. EC50 values for inhibiting the phosphorylation of the IGF-1R in activated cells are calculated using the programmes Fifty (Version 2) and GraphPad (Version 3.0).

Sequence of cytoplasmic kinase domain of human IGF-1R (IGF-1R-GST) (P08069 964-1367 limits assumed): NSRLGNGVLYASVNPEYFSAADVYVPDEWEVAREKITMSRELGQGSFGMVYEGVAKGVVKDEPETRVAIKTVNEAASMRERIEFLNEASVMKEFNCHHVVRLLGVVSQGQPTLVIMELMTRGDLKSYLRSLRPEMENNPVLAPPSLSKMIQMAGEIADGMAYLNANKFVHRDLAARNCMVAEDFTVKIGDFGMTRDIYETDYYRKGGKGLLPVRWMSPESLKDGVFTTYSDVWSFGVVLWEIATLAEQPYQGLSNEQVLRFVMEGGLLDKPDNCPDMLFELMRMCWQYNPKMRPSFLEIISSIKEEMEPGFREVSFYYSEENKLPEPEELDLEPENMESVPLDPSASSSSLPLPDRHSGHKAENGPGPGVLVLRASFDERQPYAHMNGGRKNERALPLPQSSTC
Sequence of human IGF-1R (P08069 31-1367): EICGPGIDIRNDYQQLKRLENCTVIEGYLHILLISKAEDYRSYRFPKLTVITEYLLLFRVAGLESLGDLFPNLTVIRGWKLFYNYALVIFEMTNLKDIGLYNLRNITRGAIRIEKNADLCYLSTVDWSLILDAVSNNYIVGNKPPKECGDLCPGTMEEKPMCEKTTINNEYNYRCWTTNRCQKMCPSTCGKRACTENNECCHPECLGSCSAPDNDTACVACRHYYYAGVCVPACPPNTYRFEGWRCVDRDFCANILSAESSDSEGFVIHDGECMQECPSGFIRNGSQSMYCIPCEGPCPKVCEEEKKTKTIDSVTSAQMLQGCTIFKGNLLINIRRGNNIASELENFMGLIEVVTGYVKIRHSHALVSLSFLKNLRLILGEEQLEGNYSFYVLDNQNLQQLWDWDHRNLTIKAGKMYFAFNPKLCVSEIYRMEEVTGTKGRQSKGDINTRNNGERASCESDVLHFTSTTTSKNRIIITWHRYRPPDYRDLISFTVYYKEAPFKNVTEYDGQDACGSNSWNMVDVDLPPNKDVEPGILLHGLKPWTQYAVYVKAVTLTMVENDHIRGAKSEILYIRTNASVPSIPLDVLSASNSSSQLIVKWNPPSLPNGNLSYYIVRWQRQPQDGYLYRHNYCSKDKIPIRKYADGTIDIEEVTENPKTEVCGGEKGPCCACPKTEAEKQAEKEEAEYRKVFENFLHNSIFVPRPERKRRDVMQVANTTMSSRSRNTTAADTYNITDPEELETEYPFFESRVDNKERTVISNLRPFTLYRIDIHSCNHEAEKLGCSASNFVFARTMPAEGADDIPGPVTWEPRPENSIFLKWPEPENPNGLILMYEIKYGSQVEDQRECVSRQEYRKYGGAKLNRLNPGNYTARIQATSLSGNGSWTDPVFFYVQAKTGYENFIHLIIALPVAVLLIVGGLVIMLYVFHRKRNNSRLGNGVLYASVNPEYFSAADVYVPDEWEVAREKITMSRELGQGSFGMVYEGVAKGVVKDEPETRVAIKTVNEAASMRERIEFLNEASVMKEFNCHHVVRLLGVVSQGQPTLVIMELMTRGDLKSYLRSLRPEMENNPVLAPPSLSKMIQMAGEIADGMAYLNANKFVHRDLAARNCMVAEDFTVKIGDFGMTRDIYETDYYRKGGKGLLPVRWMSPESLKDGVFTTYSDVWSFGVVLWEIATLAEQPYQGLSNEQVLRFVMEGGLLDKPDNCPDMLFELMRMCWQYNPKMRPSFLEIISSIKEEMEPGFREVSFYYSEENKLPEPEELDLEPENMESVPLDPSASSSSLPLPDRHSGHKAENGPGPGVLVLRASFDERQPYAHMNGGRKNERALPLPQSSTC

SMILES	EC50 [1] [nM]	IC50 [2] [nM]	EC50 (human IGF-1R) [nM]
CC(=O)N1CCC(n2cc(Nc3ncc4c(n3)-c3c(nn(C)c3Cc3cccc(-c5cnn(C)c5)c3)CC4)cn2)CC1 [I-013]	< 10	0.39	10 to 100
CC(C)n1cc(-c2ccc(-c3c4c(nn3C)CCc3cnc(Nc5cnn(CCN(C)C)c5)nc3-4)cc2)cn1 [I-020]	< 10	0.21	< 10
CC(=O)N1CCC(n2cc(Nc3ncc4c(n3)-c3c(nn(C)c3-c3ccc(-c5cnn(C(C)C)c5)cc3)CC4)cn2)CC1 [I-022]	< 10	0.17	10 to 100
CC(C)n1cc(-c2ccc(-c3c4c(nn3C)CCc3cnc(Nc5cnn(CCN6CCOCC6)c5)nc3-4)cc2)cn1 [I-023]	< 10	0.42	< 10
COCCn1cc(Nc2ncc3c(n2)-c2c(nn(C)c2-c2ccc(-c4cnn(C(C)C)c4)cc2)CC3)cn1 [I-027]	< 10	0.28	< 10
CC(=O)N1CCC(n2cc(Nc3ncc4c(n3)-c3c(nn(C)c3-c3ccc(-c5cnn(C)c5)cc3)CC4)cn2)CC1 [I-051]	< 10	0.21	10 to 100
CCn1ccc(Nc2ncc3c(n2)-c2c(nn(C)c2-c2ccc(-c4cnn(C5CCNCC5)c4)cc2)CC3)n1 [I-063]	< 10	0.16	10 to 100
CCn1ccc(Nc2ncc3c(n2)-c2c(nn(C)c2-c2ccc(-c4cnn(C)c4)cc2Cl)CC3)n1 [I-064]	< 10	0.31	< 10
CCn1ccc(Nc2ncc3c(n2)-c2c(nn(C)c2-c2ccc(-c4c(C)noc4C)cc2)CC3)n1 [I-066]	100 to 200	15	100 to 600
CCn1ccc(Nc2ncc3c(n2)-c2c(nn(C)c2-c2ccc(-c4cnn(CCN5CCC(N(C)C)CC5)c4)cc2)CC3)n1 [I-119]	< 10	0.09	< 10
COc1cc(C(=O)N2CCN(C)CC2)ccc1Nc1ncc2c(n1)-c1c(nn(C)c1-c1ccc(-c3cnn(C)c3)cc1)CC2 [I-129]	< 10	0.16	< 10
COc1cc(C(=O)NC(C)C)ccc1Nc1ncc2c(n1)-c1c(nn(C)c1-c1ccc(-c3cnn(C)c3)cc1)CC2 [I-132]	–	0.26	< 10
CN(C)[C@H]1CCN(C(=O)Cn2ccc(Nc3ncc4c(n3)-c3c(nn(C)c3-c3ccc(-c5cnn(C)c5)cc3)CC4)n2)C1 [I-143]	< 10	0.24	10 to 100
COc1cc(C(=O)N2CCOCC2)ccc1Nc1ncc2c(n1)-c1c(nn(C)c1-c1ccc(-c3cnn(C)c3)cc1)CC2 [I-156]	< 10	0.22	< 10
COc1cc(C(=O)NC2CCOCC2)ccc1Nc1ncc2c(n1)-c1c(nn(C)c1-c1ccc(-c3cnn(C)c3)cc1)CC2 [I-160]	< 10	0.61	< 10
COc1cc(C(=O)N[C@@H]2CCN(C)C[C@H]2OC)ccc1Nc1ncc2c(n1)-c1c(nn(C)c1-c1ccc(-c3cnn(C)c3)cc1)CC2 [I-163]	< 10	0.23	< 10

Next, values leading:

EC50 [1] [nM]	IC50 [2] [nM]	EC50 (human IGF-1R) [nM]	SMILES
< 10	0.19	10 to 100	COc1cc(C(=O)NC2CN(C)C2)ccc1Nc1ncc2c(n1)-c1c(nn(C)c1-c1ccc(-c3cnn(C)c3)cc1)CC2 [I-164]
< 10	0.09	< 10	CCN1CCN(c2ccc(Nc3ncc4c(n3)-c3c(nn(C)c3-c3ccc(-c5cnn(C)c5)cc3)CC4)c(OC)c2)CC1 [I-170]
< 10	0.08	< 10	COc1cc(N2CCN(C3CCOCC3)CC2)ccc1Nc1ncc2c(n1)-c1c(nn(C)c1-c1ccc(-c3cnn(C)c3)cc1)CC2 [I-171]
< 10	0.05	< 10	COc1cc(N2CCN(C(C)C)CC2)ccc1Nc1ncc2c(n1)-c1c(nn(C)c1-c1ccc(-c3cnn(C)c3)cc1)CC2 [I-172]
< 10	0.16	–	COCCN1CCC(n2cc(Nc3ncc4c(n3)-c3c(nn(C)c3-c3ccc(-c5cnn(C)c5)cc3)CC4)cn2)CC1 [I-175]
< 10	2	< 10	COc1cc(N2CCN(S(=O)(=O)N(C)C)CC2)ccc1Nc1ncc2c(n1)-c1c(nn(C)c1-c1ccc(-c3cnn(C)c3)cc1)CC2 [I-176]
< 10	0.23	–	Cn1cc(-c2ccc(-c3c4c(nn3C)CCc3cnc(Nc5cnn(C6CCN(S(C)(=O)=O)CC6)c5)nc3-4)cc2)cn1 [I-177]
< 10	0.34	–	CN(C)S(=O)(=O)N1CCC(n2cc(Nc3ncc4c(n3)-c3c(nn(C)c3-c3ccc(-c5cnn(C)c5)cc3)CC4)cn2)CC1 [I-178]
10 to 100	2	100 to 600	CC(=O)N1CCC(n2cc(Nc3ncc4c(n3)-c3c(nn(C)c3-c3ccc(-c5cnn(C)c5)nc3)CC4)cn2)CC1 [I-180]

Reference: US9150578B2, “5,8-dihydro-6H-pyrazolo[3,4-h]quinazolines as IGF-1R/IR inhibitors” (Boehringer Ingelheim International GmbH, priority 2012, dated 2015)
